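A five-concentration, 48-hour dose response in 96-well plates underlies each endpoint, interpolated linearly between surrounding concentrations. GI50 marks 50% less growth.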 Calls of active or inactive are those of the source. No stated cut-off is given here; in the data, active = GI50 up to about 1.1 µM and inactive = higher.
Tests used:
Test in all cases: NCI tumour cell line growth inhibition, 48 h
[1] = system: IGROV-1
[2] = system: OVCAR-8
[3] = system: A498
[4] = system: OVCAR-3
[5] = system: HOP-92
[6] = system: SNB-19
[7] = system: 786-0
[8] = system: SF-268
[9] = system: KM12
[10] = system: NCI-H226
[11] = system: RPMI-8226
[12] = system: HOP-18
[13] = system: HCT-116
[14] = system: DLD-1
[15] = system: OVCAR-5
[16] = system: NCI-H23
[17] = system: CCRF-CEM

Measured: GI50

Cn1c(N)nc(=O)c2c1N(C1OC(CO)C(O)C1O)CN2Cc1ccccc1 (stereo not given)
inactive: [1] > 100 µM | [2] > 100 µM | [3] > 100 µM | [4] > 100 µM | [5] > 100 µM | [6] > 100 µM | [7] > 100 µM | [8] > 100 µM | [9] > 100 µM | [10] > 100 µM | [11] > 100 µM | [12] > 100 µM | [13] > 100 µM | [14] > 100 µM | [15] > 100 µM | [16] > 100 µM

Cc1ccccc1/C=N/C12CC3CC(CC(C3)C1)C2
inactive: [1] > 100 µM | [2] > 100 µM | [17] > 100 µM | [3] > 100 µM | [4] > 100 µM | [5] > 100 µM | [6] > 100 µM | [7] > 100 µM | [8] > 100 µM | [9] > 100 µM | [10] > 100 µM | [11] > 100 µM | [12] > 100 µM | [13] > 100 µM | [14] > 100 µM | [15] > 100 µM | [16] > 100 µM

C=CCn1c(=O)c(C(=O)NC(=O)OCC)cn(C2CCCCC2)c1=O
inactive: [1] > 100 µM | [2] > 100 µM | [17] > 100 µM | [3] > 100 µM | [4] > 100 µM | [5] > 100 µM | [6] > 100 µM | [7] > 100 µM | [9] > 100 µM | [10] > 100 µM | [11] > 100 µM | [12] > 100 µM | [13] > 100 µM | [14] > 100 µM | [15] > 100 µM | [16] > 100 µM

Cc1ccc(N2C(=O)CS/C2=C(\C#N)c2nc3ccccc3[nH]2)cc1
inactive: [1] > 100 µM | [2] > 100 µM | [17] > 100 µM | [3] > 100 µM | [4] > 100 µM | [5] > 100 µM | [6] > 100 µM | [7] > 100 µM | [8] > 100 µM | [9] > 100 µM | [10] > 100 µM | [11] > 100 µM | [12] > 100 µM | [13] > 100 µM | [14] > 100 µM | [15] > 100 µM | [16] > 100 µM

O=C1OC(c2ccccc2)=N/C1=C\c1cccc2ccccc12
inactive: [1] > 100 µM | [2] > 100 µM | [17] > 100 µM | [3] > 100 µM | [4] > 100 µM | [5] 52.4 µM | [6] > 100 µM | [7] > 100 µM | [8] > 100 µM | [9] > 100 µM | [10] > 100 µM | [11] > 100 µM | [12] > 100 µM | [13] > 100 µM | [14] > 100 µM | [15] > 100 µM | [16] > 100 µM

N#CN=C(NCc1ccccc1)NCc1ccccc1
inactive: [1] > 100 µM | [2] > 100 µM | [17] > 100 µM | [3] > 100 µM | [4] > 100 µM | [5] > 100 µM | [6] > 100 µM | [7] > 60.7 µM | [8] 18.2 µM | [9] > 100 µM | [10] > 100 µM | [11] > 100 µM | [12] > 100 µM | [13] 18.4 µM | [14] > 47.4 µM | [15] > 100 µM | [16] > 100 µM

CCCCn1c2ccccc2c2ccc3c(c21)C(=O)C=CC3=O
inactive: [1] > 100 µM | [2] > 100 µM | [3] > 100 µM | [4] > 100 µM | [5] > 100 µM | [6] > 100 µM | [7] > 100 µM | [8] > 100 µM | [9] > 100 µM | [10] > 100 µM | [11] > 100 µM | [12] > 100 µM | [13] > 100 µM | [14] > 100 µM | [15] > 100 µM | [16] > 100 µM

O=C1c2ccccc2C(=O)N1/N=C\c1ccc(Br)cc1
inactive: [1] > 10 µM | [2] > 10 µM | [17] > 10 µM | [3] > 10 µM | [4] > 10 µM | [5] > 10 µM | [6] > 10 µM | [7] > 10 µM | [8] > 10 µM | [9] > 10 µM | [10] > 10 µM | [11] > 10 µM | [12] > 10 µM | [13] > 10 µM | [14] > 10 µM | [15] > 10 µM | [16] > 10 µM

O=C(NCC(O)CNC(=O)C(F)(F)F)C(F)(F)F
inactive: [1] > 100 µM | [2] > 100 µM | [17] > 100 µM | [3] > 100 µM | [4] > 100 µM | [5] > 100 µM | [6] > 100 µM | [7] > 100 µM | [8] > 100 µM | [9] > 100 µM | [10] > 100 µM | [11] > 100 µM | [12] > 100 µM | [13] > 100 µM | [14] > 100 µM | [15] > 100 µM | [16] > 100 µM

COC(=O)C(C(=O)C(=O)Nc1ccc([N+](=O)[O-])cc1[N+](=O)[O-])c1nc2ccc(Cl)cc2nc1O (stereo not given)
inactive: [1] > 100 µM | [2] > 100 µM | [17] > 100 µM | [3] 44.2 µM | [4] 66.4 µM | [5] > 100 µM | [6] > 100 µM | [7] > 100 µM | [8] > 100 µM | [9] > 100 µM | [10] 79.1 µM | [11] 89.9 µM | [12] 59.3 µM | [13] > 100 µM | [14] > 100 µM | [15] > 100 µM | [16] 77.8 µM

CC(C)N(C(=O)C12C3C4C5(C#N)C3C1(I)C5C42I)C(C)C (stereo not given)
inactive: [1] > 100 µM | [2] > 100 µM | [17] > 44.3 µM | [3] > 100 µM | [4] > 100 µM | [5] > 100 µM | [6] > 100 µM | [7] > 46.1 µM | [8] > 100 µM | [9] > 100 µM | [10] > 100 µM | [11] > 49.8 µM | [12] 97.5 µM | [13] 17.8 µM | [14] > 92.7 µM | [15] > 100 µM | [16] > 100 µM

CCCCCCCCCCC(=O)CC(=O)c1c(O)cccc1O
inactive: [1] 46.8 µM | [2] 35.7 µM | [3] 30.9 µM | [4] 24.2 µM | [5] 27.1 µM | [6] 61.8 µM | [7] 36.1 µM | [8] 41.1 µM | [9] 33 µM | [10] 17.9 µM | [11] 21.1 µM | [12] 18.9 µM | [13] 19.5 µM | [14] 44.6 µM | [15] 19.7 µM | [16] 26.9 µM

Source: ChEMBL document CHEMBL1201862, “PubChem BioAssay data set” (2004)
